Residues, ends and D or L forms follow the SMILES beside them. *: point of attachment. FITC = O=C1OC2(c3ccc(O)cc3Oc3cc(O)ccc32)c2ccc(NC(=S)*)cc21; 5FAM = O=C1OC2(c3ccc(O)cc3Oc3cc(O)ccc32)c2ccc(C(=O)*)cc21; Biotin = O=C1N[C@H]2[C@H](CS[C@H]2CCCCC(=O)*)N1

Tested on in the first data set: not listed separately
In words: In vitro degradation / half-life time in serum. In kind it is in vitro ADME, mouse. Conditions: spadin incubated with mouse serum; HPLC peaks identified by mass spectroscopy. As for the experimental part: […] Incubations were stopped by direct acidification (5 μl of 2.5 M HCl), loaded in C-18 sepack cartridges, lyophilized, resuspended in 20% acetonitrile before loading onto HPLC for analysis of PE degradation/stability. Elutions of HPLC products were carried out by means of a 50-min linear gradient of acetonitrile from 20 to 70% at a flow rate of 1 ml/min. The amount of the intact PE for each incubation time was expressed as the percent of the initial amount of spadin.
As for `CC[C@H](C)[C@H](NC(=O)[C@@H]1CCCN1C(=O)CNC(=O)[C@H](CO)NC(=O)[C@H](Cc1c[nH]c2ccccc12)NC(=O)[C@H](CCCNC(=N)N)NC(=O)[C@@H]1CCCN1C(=O)[C@H](CC(C)C)NC(=O)[C@@H]1CCCN1C(=O)[C@H](C)N)C(=O)NCC(=O)N[C@H](C(=O)N[C@@H](CO)C(=O)N[C@@H](Cc1c[nH]c2ccccc12)C(=O)NCC(=O)N[C@@H](CC(C)C)C(=O)O)C(C)C` [PE 12-27] (H-APLPRWSGPIGVSWGL-OH), the “time of maximal appearance of degradation peak in serum” value is 30 min.

With `CC[C@H](C)[C@H](NC(=O)[C@@H]1CCCN1C(=O)CNC(=O)[C@H](CO)NC(=O)[C@H](Cc1c[nH]c2ccccc12)NC(=O)[C@H](CCCNC(=N)N)NC(=O)[C@@H]1CCCN1C(=O)[C@@H](N)CC(C)C)C(=O)NCC(=O)N[C@H](C(=O)N[C@@H](CO)C(=O)N[C@@H](Cc1c[nH]c2ccccc12)C(=O)O)C(C)C` [PE 14-25] (H-LPRWSGPIGVSW-OH), the “time of maximal appearance of degradation peak in serum” value came to 15 min.

For the next data set, the target named is T1, TREK-1 channel (hTREK-1/HEK cells) (Homo sapiens, UniProt O95069).
T1 construct: expressed in transfected cells
T1 sequence (O95069 1-426): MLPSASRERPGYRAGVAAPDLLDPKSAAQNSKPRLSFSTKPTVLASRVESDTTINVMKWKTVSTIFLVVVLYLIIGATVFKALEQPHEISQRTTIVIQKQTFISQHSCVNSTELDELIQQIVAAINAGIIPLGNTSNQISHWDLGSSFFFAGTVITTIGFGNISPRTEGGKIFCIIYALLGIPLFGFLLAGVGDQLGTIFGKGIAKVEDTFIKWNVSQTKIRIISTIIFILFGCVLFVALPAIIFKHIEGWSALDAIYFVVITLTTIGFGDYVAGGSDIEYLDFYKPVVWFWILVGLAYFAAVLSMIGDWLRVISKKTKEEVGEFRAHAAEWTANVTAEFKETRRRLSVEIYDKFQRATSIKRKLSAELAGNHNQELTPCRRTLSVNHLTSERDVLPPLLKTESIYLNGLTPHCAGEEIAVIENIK
Kind of data set: TREK-1 current inhibition, whole-cell patch-clamp on hTREK-1/HEK cell line. In kind it is cell-based. Conditions: HEK293, peptide 100 nM; TREK-1 first activated with 10 μM arachidonic acid (AA); current density at 0 mV; hTREK-1/HEK cells; mean ± SEM, n = cells; read-out: % of TREK-1 inhibition. The procedure:
The human TREK-1/HEK cell line (Moha ou Maati et al., [2011]) and the native HEK293 cell line were maintained in Dulbecco's Modified Eagle's Medium (DMEM) supplemented with 10% (v/v) heat-inactivated fetal bovine serum, 1% (v/v) penicillin-streptomycin, 1% Glutamax. For the hTREK-1/HEK cells, 0.5 mg/ml G418 were added to the medium.
Cells were incubated in a humidified atmosphere containing 5% CO2. For electrophysiological measurements, cells were plated at a density of 20,000 cells per 35 mm dish.
Cells from the hTREK-1/HEK cell line were seeded at a density of 20,000 cells/35 mm dish. Electrophysiological recordings were performed 24–48 h after plating using the whole-cell configuration of patch-clamp technique. TREK-1 currents (ITREK−1) were recorded using RK400 patch-clamp amplifier (Axon Instrument, USA). They were low-pass filtered at 3 kHz and digitized at 10 kHz using a 12-bit analog-to-digital converter digidata (1322 series, Axon Instrument, USA). ITREK−1amplitudes were expressed as current densities [current amplitude (pA)/membrane capacitance (pF)]. The results were expressed as mean ± SEM (standard error of the mean).
Cells were continuously perfused using an external bath solution containing in mM: 150 NaCl, 5 KCl, 3 MgCl2, 1 CaCl2, and 10 HEPES. The bath solution was initially adjusted to pH 7.4 with NaOH. The intra-pipette solution contained in mM: 155 KCl, 3 MgCl2, 5 EGTA, and 10 HEPES adjusted to pH 7.2 with KOH. In order to measure ITREK−1, a cocktail of potassium channel blockers was added to the bath solution. This cocktail contained: 3 mM 4-AP (4-aminopyridine), 10 mM TEA (tetraethylammonium), 10 μM Glibenclamide, 100 nM Apamin, and 50 nM Charybdotoxin. Data acquisition was carried out using a computer (Dell Pentium) with pClamp software (Axon Instrument, USA). Whole-cell currents were generated by running a pulse or ramp protocol every 5 s from −100 to +60 mV with a holding potential maintained at −80 mV. To evaluate the inhibitory effect on TREK-1 channels of shortened spadin analogs compared with spadin, cells were first activated by 10 μM arachidonic acid (AA). Dose-response curves were realized to compare spadin-analog effects with spadin using Origin 8.6 (Northampton, MA, USA).
Patch-clamp recording data were analyzed using Clampfit (Molecular Devices, USA). I = f(V) curves were obtained from −100 to +60 mV ramp. Data were presented as mean ± SEM.
Usually inhibition stands for the change of the read-out against control, counted positive when it falls. In the case of `CC(C)C[C@H](NC(=O)CNC(=O)[C@H](Cc1c[nH]c2ccccc12)NC(=O)[C@H](CO)NC(=O)[C@@H](NC(=O)CNC(=O)c1ccc2c(c1)C(=O)OC21c2ccc(O)cc2Oc2cc(O)ccc21)C(C)C)C(=O)N[C@@H](CCCNC(=N)N)C(=O)O` [5'FAM-PE 22-28] (5FAM-GVSWGLR-OH), the inhibition at 0.1 µM amounted to 6.63 ± 7.07%.

With `CC(C)C[C@H](NC(=O)CNC(=O)[C@H](Cc1c[nH]c2ccccc12)NC(=O)[C@H](CO)NC(=O)[C@@H](NC(=O)[C@H](C)NC(=O)CCCC[C@@H]1SC[C@@H]2NC(=O)N[C@@H]21)C(C)C)C(=O)N[C@@H](CCCNC(=N)N)C(=O)O` [Biotinylated G/A-PE 22-28] (Biotin-AVSWGLR-OH), the inhibition at 0.1 µM turned out to be 46.1 ± 7.74%.

With `CC(C)C[C@H](NC(=O)CNC(=O)[C@H](Cc1c[nH]c2ccccc12)NC(=O)[C@H](CO)NC(=O)[C@@H](NC(=O)CNC(=O)CCCC[C@@H]1SC[C@@H]2NC(=O)N[C@@H]21)C(C)C)C(=O)N[C@@H](CCCNC(=N)N)C(=O)O` [Biotinylated-PE 22-28] (Biotin-GVSWGLR-OH), the inhibition at 0.1 µM came to 53 ± 6.42%.

On to `CC[C@H](C)[C@H](NC(=O)[C@@H]1CCCN1C(=O)CCCC[C@@H]1SC[C@@H]2NC(=O)N[C@@H]21)C(=O)NCC(=O)N[C@H](C(=O)N[C@@H](CO)C(=O)N[C@@H](Cc1c[nH]c2ccccc12)C(=O)NCC(=O)N[C@@H](CC(C)C)C(=O)N[C@@H](CCCNC(=N)N)C(=O)O)C(C)C` [Biotinylated-PI-PE 22-28] (Biotin-PIGVSWGLR-OH), for which the inhibition at 0.1 µM amounted to 49.1 ± 7.45%.

On to `CC(C)C[C@H](NC(=O)CNC(=O)[C@H](Cc1c[nH]c2ccccc12)NC(=O)[C@H](CO)NC(=O)[C@@H](NC(=O)CNC(=S)Nc1ccc2c(c1)C(=O)OC21c2ccc(O)cc2Oc2cc(O)ccc21)C(C)C)C(=O)N[C@@H](CCCNC(=N)N)C(=O)O` [FITC-PE 22-28] ({FITC}-GVSWGLR-OH), for which the inhibition at 0.1 µM is 22.1 ± 12.6%.

For `CC(C)C[C@H](NC(=O)CNC(=O)[C@H](Cc1c[nH]c2ccccc12)NC(=O)[C@H](CO)NC(=O)[C@@H](NC(=O)[C@H](C)N)C(C)C)C(=O)N[C@@H](CCCNC(=N)N)C(=O)O` [G/A-PE 22-28] (H-AVSWGLR-OH), the inhibition at 0.1 µM was found to be 50.6 ± 7.93%.

In the case of `CC[C@H](C)[C@H](NC(=O)[C@@H]1CCCN1C(=O)CNC(=O)[C@H](CO)NC(=O)[C@H](Cc1c[nH]c2ccccc12)NC(=O)[C@H](CCCNC(=N)N)NC(=O)[C@@H]1CCCN1C(=O)[C@H](CC(C)C)NC(=O)[C@@H]1CCCN1C(=O)[C@H](C)N)C(=O)NCC(=O)N[C@H](C(=O)N[C@@H](CO)C(=O)N[C@@H](Cc1c[nH]c2ccccc12)C(=O)NCC(=O)N[C@@H](CC(C)C)C(=O)O)C(C)C` [PE 12-27] (H-APLPRWSGPIGVSWGL-OH), the inhibition at 0.1 µM was determined as 28.4 ± 9.9%.

Take `CC[C@H](C)[C@H](NC(=O)[C@@H]1CCCN1C(=O)CNC(=O)[C@H](CO)NC(=O)[C@H](Cc1c[nH]c2ccccc12)NC(=O)[C@H](CCCNC(=N)N)NC(=O)[C@@H]1CCCN1C(=O)[C@@H](N)CC(C)C)C(=O)NCC(=O)N[C@H](C(=O)N[C@@H](CO)C(=O)N[C@@H](Cc1c[nH]c2ccccc12)C(=O)O)C(C)C` [PE 14-25] (H-LPRWSGPIGVSW-OH): the inhibition at 0.1 µM was -14.7 ± 10.6%.

As to `CC(C)[C@H](NC(=O)CN)C(=O)N[C@@H](CO)C(=O)N[C@@H](Cc1c[nH]c2ccccc12)C(=O)O` [PE 22-25] (H-GVSW-OH), the inhibition at 0.1 µM amounted to 36 ± 17.5%.

On to `CC(C)C[C@H](NC(=O)CNC(=O)[C@H](Cc1c[nH]c2ccccc12)NC(=O)[C@H](CO)NC(=O)[C@@H](NC(=O)CN)C(C)C)C(=O)O` [PE 22-27] (H-GVSWGL-OH), for which the inhibition at 0.1 µM amounted to 25.7 ± 20%.

The same data set, now with this note: peptide 100 nM after 10 μM AA; n = 8, p = 0.09.
As to `CC[C@H](C)[C@H](NC(=O)[C@@H]1CCCN1C(=O)CNC(=O)[C@H](CO)NC(=O)[C@H](Cc1c[nH]c2ccccc12)NC(=O)[C@H](CCCNC(=N)N)NC(=O)[C@@H]1CCCN1C(=O)[C@@H](N)CC(C)C)C(=O)NCC(=O)N[C@H](C(=O)N[C@@H](CO)C(=O)N[C@@H](Cc1c[nH]c2ccccc12)C(=O)O)C(C)C` [PE 14-25] (H-LPRWSGPIGVSW-OH), the “current density measured at 0 mV compared with AA activity alone (100%)” value was 114.7 ± 10.6%.

The values above are taken from paper PMC5601071 (Frontiers in Pharmacology, 2017).
